How the values were obtained:
Test in all cases: relative viability (nuclei count vs DMSO), 5 days (fraction); higher = more cells survive
MIM1 = compound: CC1=CSC(=NC2CCCCC2)N1/N=C/C3=C(C(=C(C=C3)O)O)O [MIM1]
How it was run: (§1)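 Nuclei counted with MetaXpress define viability as the ratio of treated to vehicle wells, given as a median across plates. The lung cancer cell lines were in 1536-well plates, pinned with five √10-spaced library-drug doses and imaged at 4× after 5 days and Hoechst staining. Plates passed with control CV below 25% and at least one doubling.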

Nilotinib = compound: Cc1cn(-c2cc(NC(=O)c3ccc(C)c(Nc4nccc(-c5cccnc5)n4)c3)cc(C(F)(F)F)c2)cn1 [Nilotinib]
How it was run: as §1

Lenalidomide = compound: Nc1cccc2c1CN(C1CCC(=O)NC1=O)C2=O [Lenalidomide]
How it was run: as §1

Luminespib = compound: CCNC(=O)c1noc(-c2cc(C(C)C)c(O)cc2O)c1-c1ccc(CN2CCOCC2)cc1 [Luminespib]
How it was run: as §1

Saracatinib = compound: CN1CCN(CCOc2cc(OC3CCOCC3)c3c(Nc4c(Cl)ccc5c4OCO5)ncnc3c2)CC1 [Saracatinib]
How it was run: as §1

Cell Line	relative viability (MIM1; 0.2 µM)	relative viability (MIM1; 0.6325 µM)	relative viability (MIM1; 2 µM)	relative viability (MIM1; 6.325 µM)	relative viability (MIM1; 20 µM)	relative viability (Nilotinib; 0.003162 µM)	relative viability (Nilotinib; 0.01 µM)	relative viability (Nilotinib; 0.03162 µM)	relative viability (Nilotinib; 0.1 µM)	relative viability (Lenalidomide; 0.253 µM)	relative viability (Lenalidomide; 0.8 µM)	relative viability (Lenalidomide; 2.53 µM)	relative viability (Lenalidomide; 8 µM)	relative viability (Luminespib; 0.002 µM)	relative viability (Luminespib; 0.006325 µM)	relative viability (Luminespib; 0.01 µM, anchor plate)	relative viability (Luminespib; 0.02 µM)	relative viability (Luminespib; 0.06325 µM)	relative viability (Luminespib; 0.2 µM)	relative viability (Saracatinib; 0.02 µM)	relative viability (Saracatinib; 0.2 µM)	relative viability (Saracatinib; 0.6325 µM)	relative viability (Saracatinib; 2 µM)	relative viability (Nilotinib; 0.001 µM)
201T	1	1	0.987	0.555	0.483	1.11	0.979	1.02	0.47	0.985	0.835	1.01	0.96	0.973	0.896	1.06	0.88	0.969	0.295	0.99	0.826	0.923	0.722	
A549	0.967	0.933	0.946	0.782	0.333	1.21	1.1	0.739	0.665	0.986	0.97	1.13	0.954	1.04	0.923		0.432	0.085	0.0435	1.04	0.81	1.09	0.898	0.948
A-427	1.05	0.746	0.973	0.783	0.218	1.06	1.08	0.871	0.182	1.04	0.979	1.15	0.918	1.06	0.906	1.03	0.793	0.395	0.244	1.03	0.904	0.935	0.924	0.955
ABC-1	0.902	1.15	0.9	0.485	0.264	0.907	1.05	0.78	0.322	1.01	0.774	0.993	0.825	0.993	0.865	0.718	0.63	0.239	0.2	0.942	0.811	1	0.899	1
BEN	1.02	0.914	1.01	0.853	0.323	1.03	0.929	0.926	0.786	1.09	0.892	1.12	0.731	0.944	0.925	0.383	0.442	0.656	0.355	1.11	0.755	1.05	0.759	0.876
CAL-12T	1.05	0.819	0.92	0.708	0.434	0.91		0.688	0.654	0.979	1.04	1.27	1.16	1.03	0.933	0.47	0.591	0.136	0.13	1.06	0.996	1.14	0.903	0.928
COR-L23	0.995	1.11	1.01	0.77	0.424	1.34	1.2	0.704	0.768	1.01	0.957	1.2	1.22	1.14	0.913	0.672	0.925	0.091	0.0907	1.05	0.856	0.905	0.975	0.877
COR-L 105	1	0.878	0.986	0.769	0.412	0.915	1.13	0.87	0.845	0.976	0.971	1.05	1.01	0.873	0.913	0.822	0.627	0.232	0.24	1.08	0.868	0.769	0.542	1.11
Calu-6	1.03	0.928	0.967	0.444	0.242	1.07	1.09	0.781	0.891	0.973	1.02	1.09	1.02	1.03	0.892		0.899	0.136	0.122	0.923	0.902	0.926	0.755	0.937
ChaGo-K-1	0.995	0.896	0.971	0.738	0.235	1.16	1.11	0.789	0.532	0.946	1.05	1.04	1.01	1.07	1.01	0.666	0.978	0.816	0.335	0.992	0.807	1.05	0.927	0.926
EBC-1	1.02	0.995	0.981	0.682	0.471	1.16	1.1	0.679	0.725	1.03	1.04	1.1	0.955	0.984	0.877		0.326	0.128	0.142	1.1	0.933	1.11	1.08	0.818
EKVX	0.94	1	0.881	0.604	0.511	1.16	1.15	0.854	0.659	0.988	0.803	1.05	0.846	0.956	0.724	0.851	0.655	0.878	0.356	1.03	0.738	0.966	0.631	0.823
EMC-BAC-2	1.03	0.727	0.968	0.816	0.296	0.915	0.956	0.857	0.731	1.15	0.863	1	0.493	1	0.553	1.18	0.648	0.665	0.302	0.952	0.943	0.856	0.763	0.951
EPLC-272H	0.969	0.888	0.934	0.593	0.162	0.94	0.92	0.676	0.37	1.11	0.741	1.07	0.754	0.82	0.887	0.301	0.557	0.496	0.123	0.974	0.881	1.09	0.786	0.894
H3255	0.952	0.882	0.891	0.724	0.35	0.971		0.877	0.907	0.983	0.969	1.05	0.882	0.969	0.808	0.933	0.702	0.834	0.346	1.04	0.851	0.989	0.348	0.937
HARA	0.903	0.961	0.998	0.365	0.225	0.981	0.948	0.647	0.569	1.11		1.13	1.05	0.862	0.784	0.834	0.878	0.783	0.131	0.979	0.852	1.14	0.561	0.983
HCC-15	0.997	0.717	1.08	0.425	0.105	1.18	1.15	0.761	0.496	1.02	0.877	1.21	0.854	0.967	0.923	0.388	0.943	0.33	0.128	0.982	0.888	1.07	0.99	0.909
HCC-44	1.01	0.969	0.661	0.604	0.203	0.921	0.93	0.949	0.722	1.01	0.68	0.992	0.78	0.969	1.01	1.09	0.997	0.55	0.225	1.06	0.878	1.04	1.03	1
HCC-78	1.07	0.549	0.888	0.677	0.424	0.937	1.07	0.84	0.746	0.885	0.861	0.957	0.618	0.869	0.72			0.999	0.4	0.956	0.815	1.08	0.834	1.06
HCC-366	0.991		0.973	0.216	0.0492	1.12	1.24	0.971	0.527	1.02	0.989	1.07	0.934	0.988	0.987		0.998	0.0511	0.053	1.07	0.731	0.952	0.77	0.982
HCC-827	1.01	0.994	1.03	0.367	0.39	1.09	1.07	1.03	1.06	1.04	0.99	1.05	1.1	1.06	1	0.647	0.984	1.03	0.235	1.02	0.813	0.366	0.188	1.02
HOP-62	1.02	0.942	0.782	0.74	0.204	0.958	0.948	0.698	0.462	0.943	0.963	1.05	0.93	1.05	0.969	0.912	1.01	0.659	0.249	1.02	0.968	1.19	1.14	0.953
IA-LM	0.976	0.935	0.896	0.345	0.157	0.793	1.07	0.789	0.909	0.985	0.859	1.05	0.942	1.06	0.884		0.678	0.0695	0.0432	0.983	0.848	1.46	1	0.835
LC-2-ad	0.991	0.699	0.944	0.428	0.231	1.15	1.15	0.912	0.479	1.04	0.862	1.08	1.02	0.95	0.936	1.03	0.915	0.561	0.207	1.05	0.978	1.15	0.944	0.95
LCLC-97TM1	1.02	0.767	0.703	0.456	0.144	0.984	1.06	0.834	0.368	0.943	0.932	1.05	0.616	0.878	0.814	0.77	0.466	0.528	0.0858	0.986	0.712	1.19	0.974	
LCLC-103H	1.02	0.976	0.973	0.742	0.53	1.08	1.12	0.975	0.804	0.97	1	0.988	0.783	0.982	1.01	0.954	0.941	1.02	0.83	0.944	0.884	1.02	0.963	1.01
LK-2	1.01	1.04	0.858	0.957	0.262	0.903	1.08	0.729	0.875	0.985	0.956	1.14	0.906	1.03	1.02	0.204	0.556	0.258	0.154	0.925	0.823	0.788	0.484	0.89
LOU-NH91	0.863	0.903	0.809	0.758	0.394	0.944	0.973	0.981	0.967	1	0.873	0.95	0.905	0.995	0.922	0.364	0.717	0.334	0.376	0.945	0.741	0.834	0.66	0.961

Source: the supplement of paper PMC10307832
